# Experimental data as given in patent US20220288404A1, “METHODS FOR APPLYING TUMOR TREATING FIELDS IN COMBINATION WITH CANCER TREATING THERAPEUTICS” (THE BOARD OF REGENTS OF THE UNIVERSITY OF TEXAS SYSTEM, priority 2021, published 2022).
# How the values were obtained:
# Format in all cases: cell-based
# 04.03 cells = test: Clonogenic cell survival assay, 04.03 cells; conditions: for surviving fraction: agent as shown in figure; for CI AZD + 2Gy / CI TTFields + 2Gy + AZD / CI TTFields + AZD: CI>1 synergistic
# Procedure: (§1) Using certain embodiments disclosed herein, TTFields in combination with various inhibitors and/or radiation treatment (IR) were applied to NSCLC cells or pancreatic cancer cells. For example, a predetermined inhibitor at a predetermined concentration was delivered to NSCLC cells or pancreatic cancer cells, and the cells were immediately exposed to TTFields (e.g., 100-250 kHz and 1-20 V/cm v/cm) for about 24, […], or 72 hours. The predetermined concentration was a cell line specific concentration for optimal target cell killing.
# (§2) Olaparib was given concomitant with TTFields. Radiation was given 24, 48 or 72 h after the initiation of TTFields and specific agents. […] Values greater than 1.0 are considered as synergistic, that is, greater than the sum of the individual responses. The following formulas were used for calculating CI: SF=Survival Fraction; CI (TTFields)+(2Gy)=(SF2Gy×SFTTFields)/SF2Gy+TTFields; CI(TTFields)+(Olap)=(SFOlap×SFTTFields)/SFOlap+TTFields; CI (2Gy)+(Olap)=(SF2Gy×SFOlap)/SF2Gy+Olap; and CI (TTFields)+(2Gy)+(Olap)=(SF2Gy×SFOlap×SFTTFields)/SFTTFields+2Gy+Olap. […] Based upon the Highest Single Agent […] approach. The calculation for the Combination Index can be found below.
# (§3) FIGS. 4 and 5 depict example effects of TTFields, AZD6738, radiation, and a combination thereof on non-small cell lung cancer cells (NSCLC) and pancreatic cancer cell, respectively. In particular, FIGS. 4 and 5 show TTFields exposure synergistically increases the effects of ATR inhibitor AZD6738 on NSLCL cells (FIG. 4) survival and pancreatic cancer cell (FIG. 5) survival. TTFields were used together with ATR inhibitor AZD6738 and radiation (IR). A synergistic effect was observed when AZD6738 and IR were combined with TTFields using the highest single agent (HSA) approach. The following formulas were used for calculating CI: SF=Survival Fraction; CI (TTFields)+(2Gy)=(SF2Gy×SFTTFields)/SF2Gy+TTFields; CI(TTFields)+(AZD)=(SFAZD×SFTTFields)/SFAZD+TTFields; CI (2Gy)+(AZD)=(SF2Gy×SFAZD)/SF2Gy+AZD; and CI (TTFields)+(2Gy)+(AZD)=(SF2Gy×SFAZD×SFTTFields)/SFTTFields+2Gy+AZD.
# H157 cells [1] = test: Clonogenic cell survival assay, H157 cells; conditions: for CI 5FU + 2Gy / CI TTFields + 5FU / CI TTFields + 5FU + 2Gy / CI AZD + 2Gy / CI TTFields + 2Gy + AZD / CI TTFields + AZD / CI TTFields + CP: CI>1 synergistic; for surviving fraction: agent as shown in figure
# Procedure: as §1, with “killing. Then, the cells were irradiated (at a dose of 2Gy) for less than a minute (e.g., 3.25 Gy/min) and immediately plated for survival.” for “killing.”
# as §3
# (§4) The following formulas are used for calculating the combination Index: SF=Survival Fraction; CI (TTFields)+(2Gy)=(SF2Gy×SFTTFields)/SF2Gy+TTFields; CI(TTFields)+(Irino)=(SFIrino×SFTTFields)/SFIrino+TTFields; CI (2Gy)+(Irino)=(S2Gy×SFIrino)SF2Gy+Irino; and CI (TTFields)+(2Gy)+(Irino)=(SF2Gy×SFIrino×SFTTFields)/SFTTFields+2Gy+Irino.
# H1299 cells [2] = test: Clonogenic cell survival assay, H1299 cells; conditions: 48 h, CI>1 synergistic
# H1299 cells [3] = test: Clonogenic cell survival assay, H1299 cells; conditions: for CI 5FU + 2Gy / CI TTFields + 5FU / CI TTFields + 5FU + 2Gy / CI AZD + 2Gy / CI TTFields + 2Gy + AZD / CI TTFields + AZD / CI TTFields + CP: CI>1 synergistic; for surviving fraction: agent as shown in figure
# Procedure: as §1, with “killing. Then, the cells were irradiated (at a dose of 2Gy) for less than a minute (e.g., 3.25 Gy/min) and immediately plated for survival.” for “killing.”
# as §3, §4
# Panc-1 cells = test: Clonogenic cell survival assay, Panc-1 cells; conditions: for surviving fraction: agent as shown in figure; for CI AZD + 2Gy / CI TTFields + 2Gy + AZD / CI TTFields + AZD: CI>1 synergistic
# Procedure: as §1, §2, §3, §4
# H157 cells [4] = test: Clonogenic cell survival assay, H157 cells; conditions: 48 h, CI>1 synergistic
# NSCLC = test: Cell survival of NSCLC cells with CP/ETP with/without TTFields (FIG. 6); conditions: HSA approach
# Procedure: as §1, with “killing. Then, the cells were irradiated (at a dose of 2Gy) for less than a minute (e.g., 3.25 Gy/min) and immediately plated for survival.” for “killing.”
# FIG. 6 depicts example effects of TTFields, Cisplatin, Etoposide, and a combination thereof on NSCLC. […] CP and ETP were tested alone or in combination and with/without TTFields.
structure (smiles),measurement,setting,value
"O=c1[nH]cc(F)c(=O)[nH]1 [5FU, 5-Fluorouracil]","effect of combinations of TTFields, agent and/or IR on cell survival",04.03 cells,synergistic effects
same,surviving fraction,04.03 cells,significantly reduced
same,"effect of combinations of TTFields, agent and/or IR on cell survival",H157 cells [1],synergistic effects
same,CI 5FU + 2Gy,H157 cells [1]; 24 h,0.894
same,CI TTFields + 5FU,H157 cells [1]; 24 h,1.559
same,CI TTFields + 5FU + 2Gy,H157 cells [1]; 24 h,1.433
same,CI 5FU + 2Gy,H157 cells [1]; 48 h,0.962
same,CI TTFields + 5FU + 2Gy,H157 cells [1]; 48 h,1.783
same,CI 5FU + 2Gy,H157 cells [1]; 72 h,1.125
same,CI TTFields + 5FU,H157 cells [1]; 72 h,1.106
same,CI TTFields + 5FU + 2Gy,H157 cells [1]; 72 h,1.658
same,surviving fraction,H157 cells [1],significantly reduced
same,CI TTFields + 5FU + 2Gy,H1299 cells [2],1.263
same,"effect of combinations of TTFields, agent and/or IR on cell survival",H1299 cells [3],synergistic effects
same,CI 5FU + 2Gy,H1299 cells [3]; 24 h,1.254
same,CI TTFields + 5FU,H1299 cells [3]; 24 h,1.352
same,CI TTFields + 5FU + 2Gy,H1299 cells [3]; 24 h,1.762
same,CI 5FU + 2Gy,H1299 cells [3]; 48 h,0.950
same,CI TTFields + 5FU,H1299 cells [3]; 48 h,1.348
same,CI TTFields + 5FU,H1299 cells [3]; 72 h,1.326
same,CI TTFields + 5FU + 2Gy,H1299 cells [3]; 72 h,1.345
same,surviving fraction,H1299 cells [3],significantly reduced
same,"effect of combinations of TTFields, agent and/or IR on cell survival",Panc-1 cells,synergistic effects
same,surviving fraction,Panc-1 cells,significantly reduced
same,CI TTFields + 5FU,H157 cells [4],1.252
"C[C@@H]1COCCN1c1cc(C2([S@](C)(=N)=O)CC2)nc(-c2cc[nH]c3nccc2-3)n1 [AZD, Ceralasertib (AZD6738)]","effect of combinations of TTFields, agent and/or IR on cell survival",04.03 cells,synergistic effects
same,CI AZD + 2Gy,04.03 cells; 24 h,1.018
same,CI TTFields + 2Gy + AZD,04.03 cells; 24 h,1.272
same,CI TTFields + AZD,04.03 cells; 24 h,1.049
same,CI AZD + 2Gy,04.03 cells; 48 h,1.158
same,CI TTFields + 2Gy + AZD,04.03 cells; 48 h,2.394
same,CI TTFields + AZD,04.03 cells; 48 h,1.550
same,CI AZD + 2Gy,04.03 cells; 72 h,1.011
same,CI TTFields + 2Gy + AZD,04.03 cells; 72 h,2.674
same,CI TTFields + AZD,04.03 cells; 72 h,1.287
same,surviving fraction,04.03 cells,significantly reduced
same,"effect of combinations of TTFields, agent and/or IR on cell survival",H157 cells [1],synergistic effects
same,CI AZD + 2Gy,H157 cells [1]; 24 h,1.498
same,CI TTFields + 2Gy + AZD,H157 cells [1]; 24 h,2.430
same,CI TTFields + AZD,H157 cells [1]; 24 h,1.048
same,CI AZD + 2Gy,H157 cells [1]; 48 h,1.292
same,CI TTFields + 2Gy + AZD,H157 cells [1]; 48 h,2.062
same,CI AZD + 2Gy,H157 cells [1]; 72 h,3.115
same,CI TTFields + 2Gy + AZD,H157 cells [1]; 72 h,4.874
same,CI TTFields + AZD,H157 cells [1]; 72 h,1.036
same,surviving fraction,H157 cells [1],significantly reduced
same,CI AZD + 2Gy,H1299 cells [2],1.215
same,CI TTFields + AZD,H1299 cells [2],1.242
same,"effect of combinations of TTFields, agent and/or IR on cell survival",H1299 cells [3],synergistic effects
same,CI AZD + 2Gy,H1299 cells [3]; 24 h,1.127
same,CI TTFields + 2Gy + AZD,H1299 cells [3]; 24 h,3.553
same,CI TTFields + AZD,H1299 cells [3]; 24 h,1.070
same,CI TTFields + 2Gy + AZD,H1299 cells [3]; 48 h,2.535
same,CI AZD + 2Gy,H1299 cells [3]; 72 h,1.143
same,CI TTFields + 2Gy + AZD,H1299 cells [3]; 72 h,2.206
same,CI TTFields + AZD,H1299 cells [3]; 72 h,1.092
same,surviving fraction,H1299 cells [3],significantly reduced
same,"effect of combinations of TTFields, agent and/or IR on cell survival",Panc-1 cells,synergistic effects
same,CI AZD + 2Gy,Panc-1 cells; 24 h,0.894
same,CI TTFields + 2Gy + AZD,Panc-1 cells; 24 h,1.068
same,CI TTFields + AZD,Panc-1 cells; 24 h,1.088
same,CI AZD + 2Gy,Panc-1 cells; 48 h,0.879
same,CI TTFields + 2Gy + AZD,Panc-1 cells; 48 h,1.153
same,CI TTFields + AZD,Panc-1 cells; 48 h,0.970
same,CI AZD + 2Gy,Panc-1 cells; 72 h,1.030
same,CI TTFields + 2Gy + AZD,Panc-1 cells; 72 h,1.514
same,CI TTFields + AZD,Panc-1 cells; 72 h,1.072
same,surviving fraction,Panc-1 cells,significantly reduced
same,CI TTFields + AZD,H157 cells [4],1.072
"N.N.[Cl][Pt][Cl] [CP, Cisplatin]",CI TTFields + CP,H157 cells [1]; 24 h,0.887
same,CI TTFields + CP,H157 cells [1]; 48 h,0.869
same,CI TTFields + CP,H157 cells [1]; 72 h,1.079
same,cell killing capacity in combination with TTFields,NSCLC,synergistically enhanced
same,CI TTFields + CP,H1299 cells [3]; 24 h,1.140
same,CI TTFields + CP,H1299 cells [3]; 48 h,1.021
same,CI TTFields + CP,H1299 cells [3]; 72 h,1.225
